Consider 1 compound from publication PMC8773213, “In Vitro Anticancer Activity and Mechanism of Action of an Aziridinyl Galactopyranoside” (Biomedicines, 2021).

For series [1], the system named is cancer cell lines versus MRC-5 and VH10 normal cell lines. The series is described as follows: Resazurin assay, panel of cancer cells versus normal cells. Type of series: cell-based, human. As to the method: (§1) Exponentially growing cells were seeded in 96-well plates and allowed to attach and grow for 24 h. The cells were then treated with increasing concentrations of the tested drugs. At the end of the treatment period, cell viability was measured with the MTT assay or the resazurin assay, two widely used techniques.
(§2) The resazurin assay is a redox-based colorimetric/fluorometric technique based on the ability of viable cells to reduce the blue compound resazurin into the pink, fluorescent and soluble product resorufin. The amount of resorufin produced is generally proportional to the number of living cells. In this assay, 24 h after seeding, cells were exposed to the tested drugs for 72 h. Then 100 μL resazurin in medium was added to each well (final concentration of 10 μg/mL) and, one hour later the fluorescence intensity was measured at 530/590 nm (excitation/emission) using a fluorescence microplate reader.
(§3) In both assays, cell viability was expressed as percentage compared to untreated cells. Results were expressed as the means ± standard error of the mean (SEM). All data are from at least three independent experiments.
Next, we evaluated the cytotoxic activity of AzGalp in cancer cell lines derived from solid tumors (HeLa, PC3, U2OS, HepG2 and SW480) and from hematological malignancies (NB4 and HL-60). To study the selectivity against cancer cells, MRC-5 and VH10 cells were used as normal cell lines; 5-FU was used as a positive control. All cells were treated with AzGalp or 5-FU for 72 h and cell viability was evaluated with the resazurin assay. This assay was used to determine cell viability instead of the MTT assay because the HL60 and NB4 cell lines grow in suspension. […] Leukemia cell lines were approximately 15 times more sensitive than normal cells to the cytotoxicity of our aziridine.
(Resazurin is reduced to fluorescent resorufin, in cell work by metabolically active cells.)

For the next series, the system named is A549 lung cancer cells. The series is described as follows: MTT cytotoxicity of combinations, A549. The class given is cell-based. Conditions: 48 h. On the procedure:
as §1
(§4) In the case of the MTT assay, this technique detects viable cells using the ability of these cells to reduce the yellow tetrazolium MTT to an insoluble colored formazan product. Subsequently, this product was solubilized and analyzed by spectrophotometry. Dead cells cannot reduce the MTT into the colored formazan product. Briefly, 24 h after plating, cells were treated with the tested compounds for 48 h; except in experiments with DNA repair-proficient and -deficient cell lines, in which cells were only exposed for 24 h to drugs and allowed to grow for an additional 48 h in drug-free medium to allow them to repair possible DNA damage induced by the tested drugs. […] Finally, plates were incubated overnight at 37 °C and optical densities were measured at 540 nm using an absorbance spectrophotometer microplate reader.
(§5) In both assays, cell viability was expressed as percentage compared to untreated cells. Results were expressed as the means ± standard error of the mean (SEM). […]

In the next series the test system is MRC-5 lung normal cells. The series is described as follows: MTT cytotoxicity of combinations, MRC-5. Type of series: cell-based. The note with it: 48 h. As to the method:
as §1, §4, §5

Series [2] relates to HL-60 (Human acute promyelocytic leukemia cells). The series is described as follows: Resazurin cell viability assay, HL-60. Conditions: 72 h, read-out: IC50 (Mean ± SEM, µM), HL-60. The class given is cell-based. On the procedure: as §1, §2, §3
Another series concerns UV4 and AA8 cells. Nature of the series: Clonogenic survival assay. The class given is cell-based, Chinese hamster. The note with it: 10 µM, 24 h, then colonies in drug-free medium. On the procedure: Cell survival after treatment was determined by clonogenic assay. AA8 and UV4 cells were seeded in 6 cm Petri dishes 4 h prior to treatment for 24 h. After that, drugs were removed and cells were allowed to form colonies for eight days. The colonies were then stained with 0.4% methylene blue in methanol for 15 min. Surviving colonies made up of more than 50 cells per colony were counted. Results were represented as percentage of survival referred to untreated cells.

Series [3] deals with U2OS (Human osteosarcoma cells). The series is described as follows: Resazurin cell viability assay, U2OS. The note with it: 72 h, read-out: IC50 (Mean ± SEM, µM), U2OS. Type of series: cell-based. As to the method: as §1, §2, §3
Series [4] concerns HepG2 (Human hepatocellular carcinoma cells). The series is described as follows: Resazurin cell viability assay, HepG2. The class given is cell-based. The note with it: 72 h, read-out: IC50 (Mean ± SEM, µM), HepG2. As to the method: as §1, §2, §3
Series [5] deals with MRC-5 (Human lung non-malignant cells). The series is described as follows: Resazurin cell viability assay, MRC-5. Type of series: cell-based. The note with it: MRC5, 72 h, read-out: IC50 (Mean ± SEM, µM), MRC-5. As to the method: as §1, §2, §3
For series [6], the system named is UV5 cells (mutated in ERCC2 (XPD), NER deficient). Nature of the series: MTT cell viability assay, UV5 cells. The class given is cell-based, Chinese hamster. The note with it: Cricetulus griseus, 24 h exposure, then 48 h in drug-free medium, read-out: IC50 (means ± SEM), UV5 cells. On the procedure: as §1, §4, §5
Background: Formazan colour is commonly taken as a measure of viable cells.

In a further series the test system is A549 cells. Nature of the series: Glycolysis inhibition (glucose consumed, lactate produced). The note with it: A549, 8 h. The class given is cell-based, human. As to the method:
Inhibition of glycolysis was determined by measuring glucose consumed (initial product of glycolysis) and lactate produced (final product of glycolysis) in untreated and treated cells. Cells were seeded in 6-well plates at a density of 10^6 cells/well and were allowed to attach for a few hours before treatment with the tested compounds for 8 h. After treatment, medium was recollected and glucose and lactate concentrations were determined using the Accutrend® Plus analyzer together with Accutrend glucose strips and BM-Lactate strips (Roche Diagnostics, Barcelona, Spain). After calibrating the instrument with glucose and lactate calibration strips, test strips were used to determine glucose and lactate levels through colorimetric oxidase mediator reactions according to the manufacturer’s instructions. The results are expressed as percentage of glucose consumption and percentage of lactate production in relation to untreated cells. Data were averaged from two independent experiments and shown as mean ± SEM.

Series [7] has as its system NB4 (Human acute promyelocytic leukemia cells). The series is described as follows: Resazurin cell viability assay, NB4. Type of series: cell-based. The note with it: 72 h, read-out: IC50 (Mean ± SEM, µM), NB4. As to the method:
as §1, §2, §3

Setting [8] is: 100 μM AzGalp + 10 μM oxaliplatin.

For `Cc1ccc(S(=O)(=O)N2CC2(C)CO[C@@H]2O[C@@H]3CO[C@H](c4ccccc4)O[C@@H]3[C@H](OCc3ccccc3)[C@H]2OCc2ccccc2)cc1` (stereo partly drawn) [AzGalp, 2-methyl-2,3-[N-(4-methylbenzenesulfonyl)imino]propyl 2,3-di-O-benzyl-4,6-O-(S)-benzylidene-β-D-galactopyranoside], in series [1] (HL60 and NB4, concentrations between 10 and 100 µM, 72 h), the “Viability of leukemia cells” value turned out to be 5%. In addition, in series [1] (MRC-5 and VH10, concentrations between 10 and 100 µM, 72 h), the “Viability of normal cells” value is recorded as “did not alter the viability of normal cells”. In addition, the “Sensitivity of leukemia cell lines relative to normal cells” value in series [1] (NB4 and HL-60 versus MRC-5 and VH10, 72 h) is on record as “approximately 15 times”. The “Cytotoxicity against HepG2 and U2OS relative to normal cell lines” value in series [1] (versus MRC-5 and VH10, 72 h) is “approximately 2.5 times”. In the series on A549 lung cancer cells (100 μM AzGalp + 10 μM 5-FU), the “Cytotoxicity of combination with 5-FU, cancer cells” value is reported as “killed more cancer cells than when these drugs were administered individually”. For the same compound, in the series with A549 lung cancer cells (setting [8]), the “Cytotoxicity of combination with oxaliplatin, cancer cells” value is listed as “killed more cancer cells than when these drugs were administered individually”. Besides, the “Cytotoxicity of combination with 5-FU, normal cells” value with MRC-5 lung normal cells (100 μM AzGalp + 10 μM 5-FU) is on record as “did not increase cytotoxicity against normal cells”. In the series with MRC-5 lung normal cells (setting [8]), the “Cytotoxicity of combination with oxaliplatin, normal cells” value was “did not increase cytotoxicity against normal cells”. Besides, the IC50 came out at 11.1 ± 0.9 µM in [2]; 120 ± 8 µM in series [3]; 122 ± 12.4 µM in series [4]; 341 ± 85 µM in [5]; 38.6 ± 6.3 µM in [6]; 21.4 ± 9.9 µM in series [7]. Moreover, the “Cell survival, UV4 versus AA8 (clonogenic assay)” value in the series with UV4 and AA8 cells is on record as “UV4 cells were more sensitive”. In addition, the “Glycolytic activity (glucose consumption and lactate production)” value in the series on A549 cells is recorded as “did not affect the glycolytic activity”.

One may read the IC50 as the concentration that gives 50% inhibition.
